According to patent publication EP0624593A2, “Bile acid derivates, a method for their production and their use as medicines” (HOECHST AKTIENGESELLSCHAFT, priority 1993, dated 1994):

Biological target: T1, Na⁺-abhängiges Gallensäuretransportsystem (Bürstensaummembranvesikel des Ileums) (Oryctolagus cuniculus, UniProt Q28727)
T1 construct: Präparation von Bürstensaummembranvesikeln aus dem Ileum von Kaninchen; from tissue; host or cells: Brush border membrane vesicles from the terminal ileum of male New Zealand rabbits (Mg2+ precipitation method)
T1 sequence (Q28727 1-347): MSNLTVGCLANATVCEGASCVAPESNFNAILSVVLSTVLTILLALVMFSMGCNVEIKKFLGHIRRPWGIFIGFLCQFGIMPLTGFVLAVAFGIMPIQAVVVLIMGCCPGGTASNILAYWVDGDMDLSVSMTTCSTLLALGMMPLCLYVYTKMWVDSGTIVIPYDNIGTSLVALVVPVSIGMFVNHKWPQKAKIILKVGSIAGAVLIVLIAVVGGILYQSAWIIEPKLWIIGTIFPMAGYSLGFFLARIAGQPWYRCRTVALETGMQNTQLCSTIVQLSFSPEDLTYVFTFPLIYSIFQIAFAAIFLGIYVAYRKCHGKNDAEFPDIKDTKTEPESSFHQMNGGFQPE
Test: Inhibition of [³H]-taurocholate uptake into brush border membrane vesicles of rabbit ileum (membrane filtration technique)
Type: biochemical, Kaninchen
Conditions: 50 µM Taurocholat; for IC50Na-TCDC[µmol] / IC50Na-Substanz[µmol]: quotient of IC50Na of reference Taurochenodesoxycholat (TCDC) and IC50Na of test substance, Na⁺-dependent transport part (difference Na-T-P minus K-T-P); for IC50-TCDC[µmol] / IC50-Substanz[µmol]: quotient of IC50 of reference Taurochenodesoxycholat (TCDC) and IC50 of test substance, [³H]-Taurocholat uptake, usually 1 min incubation
Excerpt: Die biologische Prüfung der erfindungsgemäßen Verbindungen erfolgte durch Ermittlung der Hemmung der [³H]-Taurocholataufnahme in Bürstensaummembranvesikel des Ileums von Kaninchen. Der Hemmtest wurde wie folgt durchgeführt:
1. Präparation von Bürstensaummembranvesikeln aus dem Ileum von Kaninchen
Die Präparation von Bürstensaummembranvisikeln aus den Darmzellen des Dünndarm erfolgte mit der sogenannten Mg²⁺-Präzipitationsmethode. Männliche Neuseeland-Kaninchen (2 bis 2,5 kg Körpergewicht) wurden durch intravenöse Injektion von 0,5 ml einer wäßrigen Lösung von 2,5 mg Tetracain HCl, 100 T 61^R und 25 mg Mebezoniumjodid getötet. Der Dünndarm wurde entnommen und mit eiskalter physiologischer Kochsalzlösung gespült. Die terminalen 7/10 des Dünndarms (gemessen in oral rectaler Richtung, d. h. das terminale Ileum, welches das aktive Na⁺-abhängige Gallensäuretransportsystem enthält) wurden zur Präparation der Bürstensaummembranvesikel verwendet. Die Därme wurden in Kunststoffbeuteln unter Stickstoff bei -80°C eingefroren. Zur Präparation der Membranvesikel wurden die eingefrorenen Därme bei 30°C im Wasserbad aufgetaut. Die Mucosa wurde abgeschabt und in 60 ml eiskaltem 12 mM Tris/HCl-Puffer (pH 7,1)/300 mM Mannit, 5 mM EGTA/10 mg/l Phenylmethylsulfonylfluorid/1 mg/l Trypsin Inhibitor v. Sojabohnen (32 U/mg)/0,5 mg/l Trypsin Inhibitor v. Rinderlunge (193 U/mg)15 mg/l Bacitracin suspendiert. Nach dem Verdünnen auf 300 ml mit eiskaltem destilliertem Wasser wurde mit einem Ultraturrax (18-Stab, IKA Werk Staufen, BRD) 3 Minuten bei 75 % max. Leistung unter Eiskühlung homogenisiert. Nach Zugabe von 3 ml 1 M MgCl₂-Lösung (Endkonzentration 10 mM) ließ man exakt 1 Minute bei 0°C stehen. Durch Zugabe von Mg²⁺ aggregieren die Zellmembranen und präzipitieren mit Ausnahme der Bürstensaummembranen. Nach einer 15-minütigen Zentrifugation bei 3000 x g (5000 rpm, SS-34-Rotor) wurde der Niederschlag verworfen und der Überstand, der die Bürstensaummembranen enthält, 30 Minuten bei […] (15000 rpm, SS-34-Rotor) zentrifugiert. Der Überstand wurde verworfen, der Niederschlag in 60 ml 12 mM Tris/HCl-Puffer (pH 7,1)/60 mM Mannit, 5 mM EGTA mit einem Potter Elvejhem Homogenisator (Braun, Melsungen, 900 rpm, 10 Hübe) rehomogenisiert. Nach Zugabe von 0,1 ml 1 M MgCl₂-Lösung und 15-minütiger Inkubationszeit bei 0°C wurde erneut 15 Minuten bei 3000 x g zentrifugiert. Der Überstand wurde anschließend nochmals 30 Minuten bei 46000 x g (15000 rpm, SS-34-Rotor) zentrifugiert. Der Niederschlag wurde in 30 ml 10 mM Tris/Hepes-Puffer (pH 7,4)/300 mM Mannit aufgenommen und durch 20 Hübe in einem Potter Elvejhem Homogenisator bei 1000 rpm homogen resuspendiert. Nach 30 minütiger Zentrifugation bei 48000 x g (20000 rpm, SS-34-Rotor) wurde der Niederschlag in 0,5 bis 2 ml Tris/Hepes-Puffer (pH 7,4)/280 mM Mannit (Endkonzentration 20 mg/ml) aufgenommen und mit Hilfe einer Tuberkulinspritze mit einer 27 Gauge-Nadel resuspendiert. Die Vesikel wurden entweder unmittelbar nach der Präparation für Transportuntersuchungen verwendet oder bei -196°C in 4 mg Portionen in flüssigem Stickstoff aufbewahrt.
2. Hemmung der Na⁺-abhängigen [³H]Taurocholat-Aufnahme in Bürstensaummembranvesikel des Ileums
Die Aufnahme von Substraten in die vorstehend beschriebenen Bürstensaummembranvesikel wurde mittels der sogenannten Membranfiltrationstechnik bestimmt. 10 µl der Vesikelsuspension (100 µg Protein) wurden als Tropfen an die Wand eines Polystyrolinkubationsröhrchens (11 x 70 mm) pipettiert, welches das Inkubationsmedium mit den entsprechenden Liganden enthielt (90 µl). Das Inkubationsmedium enthielt 0,75 µl = 0,75 µCi [³H(G)]-Taurocholat (spezifische Aktivität: 2,1 Ci/mMol) /0,5 µl 10 mM Taurocholat/8,75 µl Natrium-Transport-Puffer (10 mM Tris/Hepes, (pH 7,4)/100 mM Mannit/100 mM NaCl) (Na-T-P) bzw. 8,75 µl Kalium-Transport-Puffer (10 mM Tris/Hepes (pH 7,4)/100 mM Mannit/100 mM KCl) (K-T-P) und 80 µl der betreffenden Inhibitorlösung, je nach Experiment in Na-T-Puffer bzw. K-T-Puffer gelöst. […]

SMILES: COC(=O)CC[C@@H](C)[C@H]1CC[C@H]2[C@@H]3[C@H](OCCNC(=O)CCC(=O)NCCCNC(=O)CC[C@@H](C)[C@H]4CC[C@H]5[C@@H]6[C@H](O)C[C@@H]7C[C@H](OC(c8ccccc8)c8ccccc8)CC[C@]7(C)[C@H]6C[C@H](O)[C@]45C)C[C@@H]4C[C@H](OC(C)=O)CC[C@]4(C)[C@H]3C[C@H](O)[C@]12C [Beispiel 20]
- IC50Na-TCDC[µmol] / IC50Na-Substanz[µmol]: 0,12

SMILES: C[C@H](CCC(=O)N[C@H]1C[C@@H]2C[C@H](O)CC[C@]2(C)[C@H]2C[C@H](O)[C@]3(C)[C@@H]([C@H](C)CCC(=O)O)CC[C@H]3[C@H]12)[C@H]1CC[C@H]2[C@@H]3[C@H](O)C[C@@H]4C[C@H](O)CC[C@]4(C)[C@H]3C[C@H](O)[C@]12C [Beispiel 26]
- IC50Na-TCDC[µmol] / IC50Na-Substanz[µmol]: 0,29

SMILES: C[C@H](CCC(=O)N[C@H]1C[C@@H]2C[C@H](O)CC[C@]2(C)[C@H]2C[C@H](O)[C@]3(C)[C@@H]([C@H](C)CCC(=O)O)CC[C@H]3[C@H]12)[C@H]1CC[C@H]2[C@@H]3[C@H](O)C[C@@H]4C[C@H](O)CC[C@]4(C)[C@H]3CC[C@]12C [Beispiel 27]
- IC50Na-TCDC[µmol] / IC50Na-Substanz[µmol]: 0,44
- IC50-TCDC[µmol] / IC50-Substanz[µmol]: 0,64

SMILES: C[C@H](CCC(=O)N[C@H]1C[C@@H]2C[C@H](O)CC[C@]2(C)[C@H]2C[C@H](O)[C@]3(C)[C@@H]([C@H](C)CCC(=O)O)CC[C@H]3[C@H]12)[C@H]1CC[C@H]2[C@@H]3[C@@H](O)C[C@@H]4C[C@H](O)CC[C@]4(C)[C@H]3CC[C@]12C [Beispiel 28]
- IC50Na-TCDC[µmol] / IC50Na-Substanz[µmol]: 0,43
- IC50-TCDC[µmol] / IC50-Substanz[µmol]: 0,54

SMILES: C[C@H](CCC(=O)N[C@H]1C[C@@H]2C[C@H](O)CC[C@]2(C)[C@H]2C[C@H](O)[C@]3(C)[C@@H]([C@H](C)CCC(=O)O)CC[C@H]3[C@H]12)[C@H]1CC[C@H]2[C@@H]3CC[C@@H]4C[C@H](O)CC[C@]4(C)[C@H]3CC[C@]12C [Beispiel 29]
- IC50Na-TCDC[µmol] / IC50Na-Substanz[µmol]: 0,17
- IC50-TCDC[µmol] / IC50-Substanz[µmol]: 0,23

SMILES: C[C@H](CCC(=O)NCCO[C@@H]1C[C@@H]2C[C@H](O)CC[C@]2(C)[C@H]2C[C@H](O)[C@]3(C)[C@@H]([C@H](C)CCC(=O)O)CC[C@H]3[C@H]12)[C@H]1CC[C@H]2[C@@H]3[C@H](O)C[C@@H]4C[C@H](O)CC[C@]4(C)[C@H]3C[C@H](O)[C@]12C [Beispiel 30]
- IC50Na-TCDC[µmol] / IC50Na-Substanz[µmol]: 0,85
- IC50-TCDC[µmol] / IC50-Substanz[µmol]: 0,93

SMILES: C[C@H](CCC(=O)NCCCNC(=O)CCC(=O)NCCO[C@@H]1C[C@@H]2C[C@H](O)CC[C@]2(C)[C@H]2C[C@H](O)[C@]3(C)[C@@H]([C@H](C)CCC(=O)O)CC[C@H]3[C@H]12)[C@H]1CC[C@H]2[C@@H]3[C@H](O)C[C@@H]4C[C@H](O)CC[C@]4(C)[C@H]3C[C@H](O)[C@]12C [Beispiel 32]
- IC50Na-TCDC[µmol] / IC50Na-Substanz[µmol]: 0,80
- IC50-TCDC[µmol] / IC50-Substanz[µmol]: 1,00

SMILES: C[C@H](CCC(=O)N[C@H]1C[C@@H]2C[C@H](O)CC[C@]2(C)[C@H]2C[C@H](O)[C@]3(C)[C@@H]([C@H](C)CCC(=O)NCCS(=O)(=O)O)CC[C@H]3[C@H]12)[C@H]1CC[C@H]2[C@@H]3[C@H](O)C[C@@H]4C[C@H](O)CC[C@]4(C)[C@H]3C[C@H](O)[C@]12C [Beispiel 39]
- IC50Na-TCDC[µmol] / IC50Na-Substanz[µmol]: 1,05
- IC50-TCDC[µmol] / IC50-Substanz[µmol]: 0,92

SMILES: C[C@H](CCC(=O)N[C@H]1C[C@@H]2C[C@H](O)CC[C@]2(C)[C@H]2C[C@H](O)[C@]3(C)[C@@H]([C@H](C)CCC(=O)NCCS(=O)(=O)O)CC[C@H]3[C@H]12)[C@H]1CC[C@H]2[C@@H]3[C@H](O)C[C@@H]4C[C@H](O)CC[C@]4(C)[C@H]3CC[C@]12C [Beispiel 40]
- IC50Na-TCDC[µmol] / IC50Na-Substanz[µmol]: 0,52
- IC50-TCDC[µmol] / IC50-Substanz[µmol]: 0,54

SMILES: C[C@H](CCC(=O)NCCO[C@@H]1C[C@@H]2C[C@H](O)CC[C@]2(C)[C@H]2C[C@H](O)[C@]3(C)[C@@H]([C@H](C)CCC(=O)NCCS(=O)(=O)O)CC[C@H]3[C@H]12)[C@H]1CC[C@H]2[C@@H]3[C@H](O)C[C@@H]4C[C@H](O)CC[C@]4(C)[C@H]3C[C@H](O)[C@]12C [Beispiel 43]
- IC50Na-TCDC[µmol] / IC50Na-Substanz[µmol]: 0,96
- IC50-TCDC[µmol] / IC50-Substanz[µmol]: 1,18
